Measured values from ChEMBL document CHEMBL4673393, “Synthesis and Metabolism of BTN3A1 Ligands: Studies on Modifications of the Allylic Alcohol” (ACS Med Chem Lett, 2021).
Activity calls are given as the source filed them. No cut-off for these calls is given here.

How the values were obtained:
[1] = Prodrug conversion in human K562 cells assessed as conversion of monoacid in allylic aldehyde form at 100 uM measured after 1 hr by LC-MS analysis; format: ADME, cell-based; settings: k562, 1 h
[2] = Prodrug conversion in human K562 cells assessed as glutathione conjugation at 100 uM measured after 1 hr by LC-MS analysis; format: ADME, cell-based; settings: k562, 1 h
[3] = Prodrug conversion in human K562 cells assessed as conversion of free acid alcohol at 100 uM measured after 1 hr by LC-MS analysis; format: ADME, cell-based; settings: k562, 1 h
K562 = experiment: Toxicity in human K562 cells assessed as reduction in cell viability at 100 uM after 72 hrs by Qb reagent based fluorescence assay; settings: k562, 72 h
[4] = molecular target: Butyrophilin subfamily 3 member A1 (Homo sapiens) (UniProt O00481); experiment: Binding affinity to BTN3A1 in human PBMC-derived Vgamma9/Vdelta2 T cells assessed as induction of Vgamma9Vdelta2 T cells proliferation incubated for 3 days by gamma delta TCR/PE-CD3+ antibody staining based FACS analysis relative to HMBP analog; settings: Vgamma9Vdelta2 T cell, time 3.0 day
Butyrophilin subfamily 3 member A1 (Homo sapiens), sequence (O00481 30-513 limits assumed): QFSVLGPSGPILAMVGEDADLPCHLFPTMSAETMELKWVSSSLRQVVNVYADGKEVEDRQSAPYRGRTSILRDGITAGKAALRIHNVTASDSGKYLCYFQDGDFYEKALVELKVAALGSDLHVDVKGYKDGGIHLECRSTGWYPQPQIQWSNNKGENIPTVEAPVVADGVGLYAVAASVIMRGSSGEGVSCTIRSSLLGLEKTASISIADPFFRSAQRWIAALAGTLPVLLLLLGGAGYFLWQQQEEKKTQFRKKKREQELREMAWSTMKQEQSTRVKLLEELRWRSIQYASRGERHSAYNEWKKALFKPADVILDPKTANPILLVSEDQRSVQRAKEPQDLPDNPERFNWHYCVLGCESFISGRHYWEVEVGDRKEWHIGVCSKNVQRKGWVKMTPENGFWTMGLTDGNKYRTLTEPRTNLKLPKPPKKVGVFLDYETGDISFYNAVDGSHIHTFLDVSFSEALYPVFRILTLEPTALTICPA

[5] = Prodrug conversion in human K562 cells assessed as conversion of phosphonic monoacid in allylic aldehyde form at 100 uM measured after 1 hr by LC-MS analysis; format: ADME, cell-based; settings: k562, 1 h
[6] = Prodrug conversion in human K562 cells assessed as dehydration by measuring DMAP monoacid formation at 100 uM measured after 1 hr by LC-MS analysis; format: ADME, cell-based; settings: k562, 1 h
[7] = molecular target: Butyrophilin subfamily 3 member A1 (Homo sapiens) (UniProt O00481); experiment: Binding affinity to BTN3A1 in human K562 cells assessed as induction of Vgamma9/Vdelta2 T cell-mediated interferon gamma release preincubated for 4 hrs followed by compound washout and subsequent Vgamma9Vdelta2 T cell addition measured after 20 hrs by ELISA; format: cell-based
[8] = Prodrug conversion in human K562 cells assessed as conversion of phosphonic monoacid in allylic alcohol form at 100 uM measured after 1 hr by LC-MS analysis; format: ADME, cell-based; settings: k562, 1 h
[9] = Prodrug conversion in human K562 cells assessed as conversion of monoacid in allylic alcohol form at 100 uM measured after 1 hr by LC-MS analysis; format: ADME, cell-based; settings: k562, 1 h

| Drug metabolism [5] | SMILES | Drug metabolism [1] | Activity (K562) | fold change (FC) [4] | further results |
| --- | --- | --- | --- | --- | --- |
| Metabolite_Detected | C/C(C=O)=C\CCP(=O)(OCOC(=O)C(C)(C)C)OCOC(=O)C(C)(C)C | Metabolite_Detected | Toxic | 9 | Drug metabolism [2]: Metabolite_Detected; Drug metabolism [3]: Metabolite_Detected; Drug metabolism [6]: Metabolite_Detected |
| – | C/C(C=O)=C\CCP(=O)(NCC(=O)OC(C)C)Oc1ccccc1 (stereo unspecified) | – | – | 45 | – |
| – | CCOC(=O)CNP(=O)(CC/C=C(\C)C=O)Oc1ccccc1 (stereo unspecified) | Metabolite_Detected | – | 56 | – |
| – | C/C(C=O)=C\CCP(=O)(OCOC(=O)C(C)(C)C)Oc1ccc2ccc(=O)oc2c1 (stereo unspecified) | – | – | 2 | Activity [7]: Active |
| – | COC(=O)CNP(=O)(CC/C=C(\C)C=O)Oc1ccccc1 (stereo unspecified) | – | Toxic | 31 | – |
| Metabolite_Notdetected | C/C(=C\CCP(=O)(OCOC(=O)C(C)(C)C)OCOC(=O)C(C)(C)C)CO | Metabolite_Notdetected | – | – | Drug metabolism [8]: Metabolite_Detected; Drug metabolism [9]: Metabolite_Detected |
| – | CCOC(=O)CNP(=O)(CC/C=C(C)/C=N/O)Oc1ccccc1 (stereo unspecified) | Metabolite_Detected | – | > 2100 | – |

| SMILES | Drug metabolism [5] | Drug metabolism [1] | Activity (K562) | fold change (FC) [4] | further results |
| --- | --- | --- | --- | --- | --- |
| C/C(C=O)=C\CCP(=O)(OCOC(=O)C(C)(C)C)Oc1ccc2ccccc2c1 (stereo unspecified) | Metabolite_Detected | Metabolite_Detected | Toxic | 2 | Drug metabolism [3]: Metabolite_Detected; Activity [7]: Active |
